Data from patent US9377472B2, “Biological complex specific for Alzheimer's disease detection in vitro and use thereof” (Amoneta Diagnostics, priority 2012, dated 2016).

Legend:
PC12 cells [1] = experiment: Calcium imaging (Fura-2) of differentiated PC12 cells after acute and/or chronic Aβ peptide application; type: cell-based, rat; conditions: preincubated overnight at low concentration (10 nM), then acute 1 μM Aβ1-42
Description: PC12 rat pheochromocytoma cells were cultured in RPMI 1640 medium (InVitrogen) supplemented with 5% heat-inactivated horse serum, 10% foetal bovine serum (Dominique Dutcher) and antibiotics (penicillin 100 U/ml, streptomycin 100 U/ml, Sigma) at 37° C. in 5% CO2. PC12 cells were reseeded once a week. Before use, cells were platted in 35 mm glass-bottom culture dishes coated with type I collagen and Poly-L-ornithine; NGF (50 μg/1, Sigma) was added in the culture medium to induce their neuronal differentiation. Cells were used after 5 days in vitro, when they express a complete neuronal phenotype (neurite like extensions, voltage dependent ionic channels, neurotransmitters receptors and neurotransmitter secretion capacities).
PC12 cells platted on glass-bottom culture dishes were loaded with Fura-2 AM (1 μM, InVitrogen) and pluronic acid (InVitrogen) in a Hepes buffer for 20 min at 37° C. […] Fluorescence was excited by a xenon lamp equipped with two alternating filters allowing a fluorescence excitation at 350 nm for Ca^2+-bound Fura-2 and at 380 nm for Ca^2+-unbound Fura-2. Image pairs were recorded during 20 minutes every 5 seconds using an EM-CCD camera (Hamamatsu Photonics). Emitted fluorescence intensities (510 nm) were measured from regions of interest centered on individual cells. Normalized ratios were calculated. […]

PC12 cells [2] = experiment: Immunocytochemistry of Aβ oligomers bound to PC12 cells (A11 antibody); type: cell-based, rat
Description: In an attempt to characterise the tertiary form of the peptide bound to the cells and responsible for the priming effect that was observed immunocytochemical experiments were performed: PC12 cells were plated on poly-L-ornithine coated coverslips and maintained for 5 days in culture media supplemented with NGF to induce neuronal differentiation at 37° C. According to experimental conditions, PC 12 cells have undergone a chronic treatment and/or an acute treatment (see Example 1). Cells were subsequently rinsed to eliminate unbound Aβ and fixed with 4% paraformaldehyde in phosphate buffered saline (PBS) for 10 minutes. PC12 cells were then incubated in a blocking solution (3% Bovine Serum Albumin in PBS) for 1 hour at room temperature. A rabbit polyclonal antibody A11 (Millipore) directed against Aβ oligomers diluted 1:1500 in blocking solution was applied to the cells overnight at 4° C. Cells were washed three times for 10 minutes with the blocking solution and incubated with the appropriate secondary Dylight 549-conjugated antibody goat […], (Jackson Immunoresearch, diluted 1:2000) for 2 hours at room temperature, washed 3×10 minutes in PBS and mounted in Mowiol.
Panel G of FIG. 2(g) represents the quantification of the fluorescence intensity in the different experimental conditions in 2(a) to 2(f).

“Aβ1-42: synthetic beta-amyloid peptide 1-42 (Bachem or Anaspec), SEQ ID NO: 4” was tested, and the “priming: [Ca^2+]i response to subsequent acute 1 μM Aβ1-42 after overnight preincubation with the peptide” value (PC12 cells [1]) was “amplified”, the “fluorescent signal of bound Aβ oligomers after acute application only” value (PC12 cells [2]; acute application of 1 μM, no preincubation) was “No significant fluorescent signal” and the “fluorescent signal of bound Aβ oligomers, chronic preincubation associated to acute stimulation” value (PC12 cells [2]; chronic preincubation plus acute stimulation) was “a clear signal was observed”. The “fluorescent signal of bound Aβ oligomers after preincubation only” value (PC12 cells [2]; preincubation with 10 or 50 nM, no acute application) was “No significant fluorescent signal”.
